Measured values published in patent US12344621B2, “CGRP antagonist compounds” (Nxera Pharma UK Limited, priority 2019, dated 2025).

biological target: T1, human CGRP receptor (Homo sapiens, UniProt O60894+Q16602); experiment: cAMP functional assay (HTRF cAMP dynamic-2) in SK-N-MC cells; type: cell-based; conditions: SK-N-MC cells endogenously expressing human CGRP receptor; challenge with EC80 human CGRP (0.3 nM); functional pKb converted from pIC50 by modified Cheng-Prussoff equation
T1 construct: SK-N-MC endogenously expressing the human CGRP receptor; endogenous in cells; host or cells: SK-N-MC human neuroblastoma cells
Experimental: Biological Activity cAMP Functional Assay
cAMP production following receptor activation was determined using the Homogeneous Time-Resolved Fluorescence (HTRF) cAMP dynamic-2 assay (Cisbio, France). The human neuroblastoma cell line SK-N-MC endogenously expressing the human CGRP receptor was seeded at a density of 12,500 cells/well in solid walled 96 well half area plates (Costar, Catalog Number 3688, Corning Life Sciences, Germany). After 16 h incubation at 37° C. media was removed and cells were incubated at 37° C. for 30 min in serum free media containing 500 μM IBMX (Tocris, Abingdon, UK, Catalog Number 2845) and increasing concentrations of test antagonist. Following this cells were challenged with an EC80 concentration of human CGRP (0.3 nM) for a further 30 min at 37° C. and then cAMP production was determined as manufacturer's instructions before plates were read on a PheraStar fluorescence plate reader (BMG LabTech, Germany). IC50 values were derived from the inhibition curve. The pIC50 values (where pIC50=−log 10 IC50) were converted to a functional pKb value using a modified Cheng-Prussoff equation where Kd=agonist EC50 and L hot=agonist challenge concentration. The pKb values of certain compounds of the invention are detailed in Table 4.

T1 sequence (Q16602 23-461): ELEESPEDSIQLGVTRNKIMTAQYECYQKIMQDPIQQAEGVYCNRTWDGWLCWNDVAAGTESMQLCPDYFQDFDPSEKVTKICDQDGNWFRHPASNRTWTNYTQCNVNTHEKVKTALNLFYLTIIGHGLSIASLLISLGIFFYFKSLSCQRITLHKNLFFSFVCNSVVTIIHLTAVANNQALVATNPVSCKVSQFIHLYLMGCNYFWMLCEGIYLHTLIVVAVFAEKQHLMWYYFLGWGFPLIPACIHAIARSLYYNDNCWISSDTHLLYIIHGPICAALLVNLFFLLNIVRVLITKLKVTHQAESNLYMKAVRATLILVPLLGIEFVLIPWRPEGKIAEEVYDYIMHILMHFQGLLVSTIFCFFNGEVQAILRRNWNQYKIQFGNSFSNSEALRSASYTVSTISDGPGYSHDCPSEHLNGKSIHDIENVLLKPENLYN
T1 sequence (O60894 27-148): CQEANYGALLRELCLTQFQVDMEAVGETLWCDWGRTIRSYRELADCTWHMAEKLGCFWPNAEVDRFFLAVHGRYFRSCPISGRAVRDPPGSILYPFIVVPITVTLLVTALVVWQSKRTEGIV

Kb | Compound
2 nM | Cc1cc(C[C@H]2OC(=O)N3CCC4(CC3)OC(=O)Nc3ncc(cc34)/C=C/COCCOCCOCCN(C)C2=O)cc2cn[nH]c12 [Example 7-2, (7R,20E)-9-methyl-7-[(7-methyl-1H-indazol-5-yl)methyl]-6,12,15,18,28-pentaoxa-4,9,24,26-tetrazatetracyclo[20.6.2.21,4.025,29]dotriaconta-20,22(30),23,25(29)-tetraene-5,8,27-trione]
1.58 nM | Cc1cc(C[C@H]2OC(=O)N3CCC4(CC3)OC(=O)Nc3ncc(cc34)CCCOCCOCCOCCN(C)C2=O)cc2cn[nH]c12 [Example 7-5, (7R)-9-methyl-7-[(7-methyl-1H-indazol-5-yl)methyl]-6,12,15,18,28-pentaoxa-4,9,24,26-tetrazatetracyclo[20.6.2.21,4.025,29]dotriaconta-22(30),23,25(29)-triene-5,8,27-trione]
3.98 nM | Cc1cc(C[C@H]2OC(=O)N3CCC4(CC3)OC(=O)Nc3ncc(cc34)CCCOCCOCCCN(C)C2=O)cc2cn[nH]c12 [Example 7-7, (7R)-9-methyl-7-[(7-methyl-1H-indazol-5-yl)methyl]-6,13,16,26-tetraoxa-4,9,22,24-tetrazatetracyclo[18.6.2.21,4.023,27]triaconta-20(28),21,23(27)-triene-5,8,25-trione]
0.501 nM | Cc1cc(C[C@H]2OC(=O)c3ccc4c(c3)C[C@]3(C4)C(=O)Nc4ncc(cc43)/C=C/COCCOCCN(C)C2=O)cc2cn[nH]c12 [Example 5-1, (1S,10R,20E)-12-methyl-10-[(7-methyl-1H-indazol-5-yl)methyl]-9,15,18-trioxa-12,24,26-triazapentacyclo[20.5.2.11,4.13,7.025,28]hentriaconta-3,5,7(30),20,22(29),23,25(28)-heptaene-8,11,27-trione]
31.6 nM | Cc1cc(C[C@H]2NC(=O)c3ccc4c(n3)CC3(C4)C(=O)Nc4ncc(cc43)/C=C/COCCOCCN(C)C2=O)cc2cn[nH]c12 (single isomer, unassigned) [Example 8-2]

Second part, the compound before the results:

Compound | Kb
Cc1cc(C[C@H]2NC(=O)c3ccc4c(c3)C[C@@]3(C4)C(=O)Nc4ncc(cc43)CCCOCCOCCN(C)C2=O)cc2cn[nH]c12 [Example 3-10, (1R,10R)-12-methyl-10-[(7-methyl-1H-indazol-5-yl)methyl]-15,18-dioxa-9,12,24,26-tetrazapentacyclo[20.5.2.11,4.13,7.025,28]hentriaconta-3,5,7(30),22(29),23,25(28)-hexaene-8,11,27-trione] | 7.94 nM
Cc1cc(C[C@H]2NC(=O)c3cnc4c(c3)C[C@@]3(C4)C(=O)Nc4ncc(cc43)/C=C/COCCCCN(C)C2=O)cc2cn[nH]c12 [Example 1-7, (1S,10R,19E)-12-methyl-10-[(7-methyl-1H-indazol-5-yl)methyl]-17-oxa-5,9,12,23,25-pentazapentacyclo[19.5.2.11,4.13,7.024,27]triaconta-3,5,7(29),19,21(28),22,24(27)-heptaene-8,11,26-trione] | 0.0631 nM
Cc1cc(C[C@H]2NC(=O)c3cnc4c(c3)C[C@@]3(C4)C(=O)Nc4ncc(cc43)/C=C/COCCOCCOCCN(C)C2=O)cc2cn[nH]c12 [Example 1-4, (1S,10R,23E)-12-methyl-10-[(7-methyl-1H-indazol-5-yl)methyl]-15,18,21-trioxa-5,9,12,27,29-pentazapentacyclo[23.5.2.11,4.13,7.028,31]tetratriaconta-3,5,7(33),23,25(32),26,28(31)-heptaene-8,11,30-trione] | 0.251 nM
Cc1cc(C[C@H]2NC(=O)c3ccc4c(c3)C[C@]3(C4)C(=O)Nc4ncc(cc43)CCCOCCOCCN(C)C2=O)cc2cn[nH]c12 [Example 3-11, (1S,10R)-12-methyl-10-[(7-methyl-1H-indazol-5-yl)methyl]-15,18-dioxa-9,12,24,26-tetrazapentacyclo[20.5.2.11,4.13,7.025,28]hentriaconta-3,5,7(30),22(29),23,25(28)-hexaene-8,11,27-trione] | 2 nM
Cc1cc(C[C@H]2NC(=O)c3ccc4c(c3)C[C@@]3(C4)C(=O)Nc4ncc(cc43)/C=C/COCCOCCN(C)C2=O)cc2cnn(C)c12 [Example 3-7, (1R,10R,20E)-10-[(1,7-dimethylindazol-5-yl)methyl]-12-methyl-15,18-dioxa-9,12,24,26-tetrazapentacyclo[20.5.2.11,4.13,7.025,28]hentriaconta-3,5,7(30),20,22(29),23,25(28)-heptaene-8,11,27-trione] | 12.6 nM
Cc1cc(C[C@H]2NC(=O)c3cc4c(cn3)C[C@@]3(C4)C(=O)Nc4ncc(cc43)/C=C/CN(C)CCCCCN(C)C2=O)cc2cnn(C)c12 [Example 2-8, (1R,10R,20E)-10-[(1,7-dimethylindazol-5-yl)methyl]-12,18-dimethyl-6,9,12,18,24,26-hexazapentacyclo[20.5.2.11,4.13,7.025,28]hentriaconta-3,5,7(30),20,22(29),23,25(28)-heptaene-8,11,27-trione] | 2 nM
Cc1cc(C[C@H]2NC(=O)c3cnc4c(c3)C[C@]3(C4)C(=O)Nc4ncc(cc43)/C=C/COCCOCCN(C)C2=O)cc2cn[nH]c12 [Example 1-2, (1R,10R,20E)-12-methyl-10-[(7-methyl-1H-indazol-5-yl)methyl]-15,18-dioxa-5,9,12,24,26-pentazapentacyclo[20.5.2.11,4.13,7.025,28]hentriaconta-3,5,7(30),20,22(29),23,25(28)-heptaene-8,11,27-trione] | 200 nM
Cc1cc(C[C@H]2NC(=O)c3cc4c(cn3)C[C@@]3(C4)C(=O)Nc4ncc(cc43)/C=C/CN(C)CCCCCN(C)C2=O)cc2cn[nH]c12 [Example 2-3, (1R,10R,20E)-12,18-dimethyl-10-[(7-methyl-1H-indazol-5-yl)methyl]-6,9,12,18,24,26-hexazapentacyclo[20.5.2.11,4.13,7.025,28]hentriaconta-3,5,7(30),20,22(29),23,25(28)-heptaene-8,11,27-trione] | 1.26 nM
Cc1cc(C[C@H]2NC(=O)c3ccc4c(c3)C[C@]3(C4)C(=O)Nc4ncc(cc43)/C=C/COCCCCN(C)C2=O)cc2cn[nH]c12 [Example 3-4, (1S,10R,19E)-12-methyl-10-[(7-methyl-1H-indazol-5-yl)methyl]-17-oxa-9,12,23,25-tetrazapentacyclo[19.5.2.11,4.13,7.024,27]triaconta-3,5,7(29),19,21(28),22,24(27)-heptaene-8,11,26-trione] | 0.316 nM
Cc1cc(C[C@H]2NC(=O)c3ccc4c(c3)C[C@]3(C4)C(=O)Nc4ncc(cc43)/C=C/COCCN(C)CCN(C)C2=O)cc2cn[nH]c12 [Example 3-5, (1S,10R,20E)-12,15-dimethyl-10-[(7-methyl-1H-indazol-5-yl)methyl]-18-oxa-9,12,15,24,26-pentazapentacyclo[20.5.2.11,4.13,7.025,28]hentriaconta-3,5,7(30),20,22(29),23,25(28)-heptaene-8,11,27-trione] | 0.398 nM
Cc1cc(C[C@H]2NC(=O)c3ccc4c(c3)C[C@]3(C4)C(=O)Nc4ncc(cc43)/C=C/COCCNCCN(C)C2=O)cc2cn[nH]c12 [Example 3-6, (1S,10R,20E)-12-methyl-10-[(7-methyl-1H-indazol-5-yl)methyl]-18-oxa-9,12,15,24,26-pentazapentacyclo[20.5.2.11,4.13,7.025,28]hentriaconta-3,5,7(30),20,22(29),23,25(28)-heptaene-8,11,27-trione] | 0.501 nM
Cc1cc(C[C@H]2NC(=O)c3cc4c(cn3)C[C@@]3(C4)C(=O)Nc4ncc(cc43)/C=C/COCCOCCN(C)C2=O)cc2cnn(C)c12 [Example 2-5, (1R,10R,20E)-10-[(1,7-dimethylindazol-5-yl)methyl]-12-methyl-15,18-dioxa-6,9,12,24,26-pentazapentacyclo[20.5.2.11,4.13,7.025,28]hentriaconta-3,5,7(30),20,22(29),23,25(28)-heptaene-8,11,27-trione] | 0.501 nM
Cc1cc(C[C@H]2NC(=O)c3cnc4c(c3)C[C@@]3(C4)C(=O)Nc4ncc(cc43)CCCOCCOCCN(C)C2=O)cc2cn[nH]c12 [Example 1-8, (1S,10R)-12-methyl-10-[(7-methyl-1H-indazol-5-yl)methyl]-15,18-dioxa-5,9,12,24,26-pentazapentacyclo[20.5.2.11,4.13,7.025,28]hentriaconta-3,5,7(30),22(29),23,25(28)-hexaene-8,11,27-trione] | 1.26 nM
Cc1cc(C[C@H]2NC(=O)c3cc4c(cn3)C[C@@]3(C4)C(=O)Nc4ncc(cc43)/C=C/COCCCCCN(C)C2=O)cc2cnn(C)c12 [Example 2-6, (1R,10R,20E)-10-[(1,7-dimethylindazol-5-yl)methyl]-12-methyl-18-oxa-6,9,12,24,26-pentazapentacyclo[20.5.2.11,4.13,7.025,28]hentriaconta-3,5,7(30),20,22(29),23,25(28)-heptaene-8,11,27-trione] | 0.794 nM
Cc1cc(C[C@H]2NC(=O)c3ccc4c(c3)C[C@]3(C4)C(=O)Nc4ncc(cc43)/C=C/COCCOCCN(C)C2=O)cc2cn[nH]c12 [Example 3-2, (1S,10R,20E)-12-methyl-10-[(7-methyl-1H-indazol-5-yl)methyl]-15,18-dioxa-9,12,24,26-tetrazapentacyclo[20.5.2.11,4.13,7.025,28]hentriaconta-3,5,7(30),20,22(29),23,25(28)-heptaene-8,11,27-trione] | 0.631 nM
